Assay results reported in paper PMC3946900 (Pharmaceutical research, 2013).
Where two headings read alike, the source gives them in different places.

Legend:
[1] = system: P-gp (mdr1); details: cited from earlier work
[2] = system: P-gp; test: Compartmental models of apical efflux fit to permeability data
[3] = molecular target: P-glycoprotein (P-gp, ABCB1; MDR1) (Homo sapiens, UniProt P08183); details: MDCK-MDR1 cells with and without CsA
[4] = 5C model, asa = 1, lipid content = 10%

P-glycoprotein (P-gp, ABCB1; MDR1), sequence (P08183 whole entry): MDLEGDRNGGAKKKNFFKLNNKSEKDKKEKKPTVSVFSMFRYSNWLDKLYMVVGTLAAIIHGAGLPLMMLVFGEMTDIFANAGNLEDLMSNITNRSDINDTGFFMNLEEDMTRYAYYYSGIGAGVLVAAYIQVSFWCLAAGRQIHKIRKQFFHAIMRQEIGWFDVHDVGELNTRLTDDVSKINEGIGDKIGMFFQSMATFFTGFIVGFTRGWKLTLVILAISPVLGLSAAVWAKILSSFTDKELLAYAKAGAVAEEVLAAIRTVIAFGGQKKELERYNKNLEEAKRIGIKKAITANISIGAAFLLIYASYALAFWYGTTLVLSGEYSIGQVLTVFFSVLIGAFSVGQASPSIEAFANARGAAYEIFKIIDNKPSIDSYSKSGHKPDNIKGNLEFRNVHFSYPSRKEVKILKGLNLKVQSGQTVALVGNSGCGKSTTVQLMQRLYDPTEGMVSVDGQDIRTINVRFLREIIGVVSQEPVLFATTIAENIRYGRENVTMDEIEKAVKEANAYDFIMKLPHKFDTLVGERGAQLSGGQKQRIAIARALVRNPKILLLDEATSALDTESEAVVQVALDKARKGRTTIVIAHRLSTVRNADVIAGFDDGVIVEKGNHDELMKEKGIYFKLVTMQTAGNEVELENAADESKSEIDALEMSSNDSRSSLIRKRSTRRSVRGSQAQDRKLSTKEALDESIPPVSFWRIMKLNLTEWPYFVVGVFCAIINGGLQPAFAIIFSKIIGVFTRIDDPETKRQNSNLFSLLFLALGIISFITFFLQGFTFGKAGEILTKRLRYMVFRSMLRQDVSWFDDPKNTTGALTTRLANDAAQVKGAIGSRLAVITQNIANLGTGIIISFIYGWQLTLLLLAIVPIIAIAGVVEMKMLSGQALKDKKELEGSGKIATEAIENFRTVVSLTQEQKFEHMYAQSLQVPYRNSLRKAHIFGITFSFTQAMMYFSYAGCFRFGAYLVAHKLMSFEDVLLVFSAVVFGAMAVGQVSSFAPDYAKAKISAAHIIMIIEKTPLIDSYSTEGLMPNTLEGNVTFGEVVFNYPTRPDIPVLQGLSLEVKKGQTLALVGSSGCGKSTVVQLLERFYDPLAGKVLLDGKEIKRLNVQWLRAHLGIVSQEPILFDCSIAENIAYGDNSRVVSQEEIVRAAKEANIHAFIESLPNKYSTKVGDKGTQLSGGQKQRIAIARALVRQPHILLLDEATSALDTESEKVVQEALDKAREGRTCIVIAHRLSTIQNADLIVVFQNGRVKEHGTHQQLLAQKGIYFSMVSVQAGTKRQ

Structure (SMILES)	Brain Conc. Ratio mdr1(−/−)/mdr1(+/+) ([1]; mice, brain)	Liver Conc. Ratio mdr1(−/−)/mdr1(+/+) ([1]; mice, liver)	other results
CC[C@]1(O)C[C@@H]2CN(CCc3c([nH]c4ccccc34)[C@@](C(=O)OC)(c3cc4c(cc3OC)N(C)[C@H]3[C@@](O)(C(=O)OC)[C@H](OC(C)=O)[C@]5(CC)C=CCN6CC[C@]43[C@@H]65)C2)C1 [Vinblastine]	22.4	1.8	
Cc1nnc2n1-c1sc(CCC(=O)N3CCOCC3)cc1C(c1ccccc1Cl)=NC2 [Apafant]	73.6	4.5	
O=C(O)C[C@H](O)C[C@H](O)/C=C/c1c(C2CC2)nc2ccccc2c1-c1ccc(F)cc1 [Pitavastatin]	1.3	0.88	CLae (active apical efflux clearance) [2, 4]: 0.030 µL/min; CLi (diffusion clearance into an explicit membrane compartment) [2, 4]: 3.5 µL/min
CN(C(=O)C(c1ccccc1)c1ccccc1)[C@H](CN1CC[C@H](O)C1)c1ccccc1 [Asimadoline]	9.1	1.1	
C/C=C/C[C@@H](C)C(=O)[C@H]1C(=O)N[C@@H](C(C)C)C(=O)N(C)CC(=O)N(C)[C@@H](CC(C)C)C(=O)N[C@@H](C(C)C)C(=O)N(C)[C@@H](CC(C)C)C(=O)N[C@@H](C)C(=O)N[C@H](C)C(=O)N(C)[C@@H](CC(C)C)C(=O)N(C)[C@@H](CC(C)C)C(=O)N(C)[C@@H](C(C)C)C(=O)N1C [SDZ PSC 833]	2.1	0.9	
C=CC[C@@H]1/C=C(\C)C[C@H](C)C[C@H](OC)[C@H]2O[C@@](O)(C(=O)C(=O)N3CCCC[C@H]3C(=O)O[C@H](/C(C)=C/[C@@H]3CC[C@@H](O)[C@H](OC)C3)[C@H](C)[C@@H](O)CC1=O)[C@H](C)C[C@@H]2OC [Tacrolimus]			Brain Conc. Ratio mdr1(−/−)/mdr1(+/+) ([1]; mouse, in vivo): 6.0; Liver Conc. Ratio mdr1(−/−)/mdr1(+/+) ([1]; mouse, in vivo): 1.7
Cc1nccn1CC1CCc2c(c3ccccc3n2C)C1=O (stereo not shown) [Ondansetron]	4.0	0.9	
CO[C@H]1C[C@H](O[C@@H]2/C(C)=C/C[C@@H]3C[C@@H](C[C@]4(CC[C@H](C)[C@@H](C5CCCCC5)O4)O3)OC(=O)[C@@H]3C=C(C)/C(=N/O)[C@H]4OC/C(=C\C=C\[C@@H]2C)[C@]43O)O[C@@H](C)[C@@H]1O [Selamectin]			Brain Conc. Ratio mdr1(−/−)/mdr1(+/+) ([1]; mouse, in vivo): 4.9; Liver Conc. Ratio mdr1(−/−)/mdr1(+/+) ([1]; mouse, in vivo): 0.5
Nc1cc(N2CCCCC2)nc(N)[n+]1[O-] [Minoxidil]			CLae (active apical efflux clearance) [2]: 0.021 µL/min
CN(C)C(=O)C(CCN1CCC(O)(c2ccc(Cl)cc2)CC1)(c1ccccc1)c1ccccc1 [Loperamide]			permeability (qualitative) [3]: high permeability
Cc1c(O)cccc1C(=O)N[C@@H](CSc1ccccc1)[C@H](O)CN1C[C@H]2CCCC[C@H]2C[C@H]1C(=O)NC(C)(C)C [Nelfinavir]	16.1	3.0	
